Experimental data taken from patent US20240174622A1, “COMPOUND AND RADIOACTIVE LABELING COMPOUND” (NIHON MEDI-PHYSICS CO., LTD., priority 2021, published 2024).

Tests used:
[1] = test system: LNCaP tumor-transplanted mouse; test: Internal radioactivity distribution using LNCaP tumor-transplanted mouse; assay type: in vivo
How it was run: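 Male SCID mice bearing subcutaneous LNCaP or PC-3 xenografts (40–60 days) received the 111In-labelled compound i.v. via tail vein (185–259 kBq in saline; n=2–3). Blood and organs collected at 1 to 192 hours post-dose, weighed and counted. Uptake expressed as %ID/g.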

[2] = test system: PC-3 tumor-transplanted mouse; test: Internal radioactivity distribution using PC-3 tumor-transplanted mouse; assay type: in vivo
Protocol: (§1) The animal test was performed in compliance with the guidelines of Kyoto University Animal Experiment Committee. Male CB17/IcrJcl-Prkdc^scid mice were purchased from CLEA Japan, Inc. The animals were kept under 12 h/12 h, day/night cycle conditions and fed ad libitum with food and water. LNCaP cells (1.0×10^7 cells/mouse) or PC-3 cells (1.0×10^7 cells/mouse) were suspended in a mixture of PBS and Matrigel manufactured by Corning Life Sciences (1:1, 150 μL) and the suspension was subcutaneously transplanted to the right shoulder of mice under isoflurane anesthesia. Thereafter, the mice were kept for 40 to 60 days.
LNCaP or PC-3 tumor-implanted mice were administered saline solutions (185 kBq, 100 μL) of [^111In]In-PSMA-DA1 or [^111In]In-PSMA-DB from the tail vein (n=3 each). Mice were euthanized 1, 4, 24, 48, 96, and 192 hours after administration. Thereafter, blood and each organ were recovered, and the mass and radioactivity of the organs were measured.
The percentage (% ID) of the radioactivity amount to the administered radioactivity amount (injected dose) is shown as the value (% ID/g) divided by the blood mass or the organ mass (g).
as §1, with “LNCaP cells (4.3×10^6 cells/mouse) or” for “LNCaP cells (1.0×10^7 cells/mouse) or”, “PC-3 cells (3.3×10^6 cells/mouse) were” for “PC-3 cells (1.0×10^7 cells/mouse) were”, “shoulder of CB17/IcrJcl-Prkdc^scid mice under” for “shoulder of mice under”
Mice were euthanized 1, 4, 24, 48, 96, and 192 hours after administration. Thereafter, blood and each organ were recovered, and the mass and radioactivity of the organs were measured.
The results are shown in Table 13 (Mean value±standard deviation, n=3).

[3] = 24 h after administration, PC-3 tumor-transplanted mice

## O=C([O-])CN1CCN(C(CCC(=O)NCCCC[C@H](NC(=O)N[C@@H](CCC(=O)O)C(=O)O)C(=O)O)C(=O)[O-])CCN(CC(=O)[O-])CCN(C(CCC(=O)N[C@@H](CCCCNC(=O)CCCc2ccc(I)cc2)C(=O)O)C(=O)[O-])CC1.[111In+3] (stereo partly drawn) [[^111In]In-PSMA-DA1]
[1]; 1 h after administration
  Blood: 31.1 ± 3.99 % ID/g
  Brain: 0.56 ± 0.06 % ID/g
  Heart: 7.93 ± 2.10 % ID/g
  Intestine: 2.63 ± 0.42 % ID/g
  Kidney: 34.3 ± 7.79 % ID/g
  LNCaP Tumor: 9.41 ± 2.30 % ID/g
  Liver: 4.95 ± 0.27 % ID/g
  Lung: 16.2 ± 3.86 % ID/g
  Muscle: 2.02 ± 0.17 % ID/g
  Pancreas: 3.34 ± 0.40 % ID/g
  Spleen: 8.56 ± 2.90 % ID/g
  Stomach (% ID): 0.52 ± 0.02 % ID
[1]; 4 h after administration
  Blood: 26.9 ± 9.56 % ID/g
  Brain: 0.52 ± 0.15 % ID/g
  Heart: 7.10 ± 1.82 % ID/g
  Intestine: 3.17 ± 0.73 % ID/g
  Kidney: 63.5 ± 13.9 % ID/g
  LNCaP Tumor: 12.1 ± 4.04 % ID/g
  Liver: 4.20 ± 1.51 % ID/g
  Lung: 17.9 ± 6.62 % ID/g
  Muscle: 2.15 ± 1.09 % ID/g
  Pancreas: 2.48 ± 1.03 % ID/g
  Spleen: 9.52 ± 4.28 % ID/g
  Stomach (% ID): 0.51 ± 0.05 % ID
[1]; 24 h after administration
  Blood: 14.0 ± 3.27 % ID/g
  Brain: 0.36 ± 0.11 % ID/g
  Heart: 4.26 ± 0.89 % ID/g
  Intestine: 1.53 ± 0.44 % ID/g
  Kidney: 27.1 ± 9.25 % ID/g
  LNCaP Tumor: 12.6 ± 2.15 % ID/g
  Liver: 2.64 ± 0.38 % ID/g
  Lung: 10.5 ± 2.58 % ID/g
  Muscle: 1.38 ± 0.39 % ID/g
  Pancreas: 2.12 ± 0.49 % ID/g
  Spleen: 6.01 ± 2.33 % ID/g
  Stomach (% ID): 0.40 ± 0.09 % ID
[1]; 24 hours after administration
  retention in blood: 14.000 % ID/g
[1]; 48 h after administration
  Blood: 4.18 ± 0.56 % ID/g
  Brain: 0.16 ± 0.01 % ID/g
  Heart: 1.66 ± 0.23 % ID/g
  Intestine: 0.96 ± 0.25 % ID/g
  Kidney: 9.04 ± 2.70 % ID/g
  LNCaP Tumor: 8.82 ± 1.26 % ID/g
  Liver: 1.59 ± 0.14 % ID/g
  Lung: 4.17 ± 0.26 % ID/g
  Muscle: 0.54 ± 0.10 % ID/g
  Pancreas: 1.06 ± 0.12 % ID/g
  Spleen: 4.28 ± 0.79 % ID/g
  Stomach (% ID): 0.25 ± 0.05 % ID
[1]; 48 hours after administration
  tumor/kidney ratio: exceeded 1
[1]; 96 h after administration
  Blood: 0.76 ± 0.58 % ID/g
  Brain: 0.07 ± 0.03 % ID/g
  Heart: 0.75 ± 0.33 % ID/g
  Intestine: 0.75 ± 0.44 % ID/g
  Kidney: 3.51 ± 2.54 % ID/g
  LNCaP Tumor: 5.98 ± 1.87 % ID/g
  Liver: 1.10 ± 0.27 % ID/g
  Lung: 1.55 ± 0.86 % ID/g
  Muscle: 0.23 ± 0.09 % ID/g
  Pancreas: 0.64 ± 0.24 % ID/g
  Spleen: 2.42 ± 1.54 % ID/g
  Stomach (% ID): 0.08 ± 0.03 % ID
[1]; 192 h after administration
  Blood: 0.16 ± 0.03 % ID/g
  Brain: 0.05 ± 0.01 % ID/g
  Heart: 0.41 ± 0.08 % ID/g
  Intestine: 0.12 ± 0.03 % ID/g
  Kidney: 1.33 ± 0.42 % ID/g
  LNCaP Tumor: 4.69 ± 1.32 % ID/g
  Liver: 0.69 ± 0.12 % ID/g
  Lung: 0.75 ± 0.22 % ID/g
  Muscle: 0.15 ± 0.05 % ID/g
  Pancreas: 0.46 ± 0.08 % ID/g
  Spleen: 2.69 ± 0.83 % ID/g
  Stomach (% ID): 0.05 ± 0.01 % ID
[2]; [3]
  Blood: 5.73 ± 0.67 % ID/g
  Brain: 0.17 ± 0.04 % ID/g
  Heart: 1.90 ± 0.22 % ID/g
  Intestine: 1.37 ± 0.22 % ID/g
  Kidney: 9.56 ± 1.55 % ID/g
  Liver: 1.60 ± 0.12 % ID/g
  Lung: 4.74 ± 0.67 % ID/g
  Muscle: 0.59 ± 0.02 % ID/g
  PC-3 Tumor: 2.69 ± 0.30 % ID/g
  Pancreas: 1.37 ± 0.04 % ID/g
  Spleen: 2.52 ± 0.12 % ID/g
  Stomach (% ID): 0.27 ± 0.08 % ID
[2]; mouse, in vivo
  accumulation at the PC-3 tumor compared with the LNCaP tumor at the same time point (in words): less accumulated
